Data from patent EP0238060B1, “Cephalosporin derivatives, processes for their preparation and antibacterial agents” (Banyu Pharmaceutical Co., Ltd., priority 1986, dated 1987).
In brackets after ≈: the same amount, converted by molar mass.

How the values were obtained:
Assay in all cases: In vitro antibacterial activity, agar plate dilution method (MIC)
[1] = test system: Ps.cepacia 23; type: cell-based, Pseudomonas cepacia; settings: Burkholderia cepacia; Ps.cepacia 23; Mueller Hinton agar, inoculum 10⁶ CFU/ml, 37°C, 16 hours; read-out: Minimum Inhibitory Concentration (MIC: µg/ml)
Method: (§1) The in vitro antibacterial activities of the compounds of the present invention against various microorganisms, were measured by the following agar plate dilution method. One platinum loopfull of each test microorganism incubated overnight in Mueller Hinton broth, was inoculated to Mueller Hinton agar (inoculum size: l0⁶ CFU/ml). Such culture media containing various antibiotics in various concentrations were prepared. After incubation at 37°C for l6 hours, the minimum inhibitory concentrations (MIC: µg/ml) were measured. As comparative compounds, Cefotaxime, Ceftazidime and the compounds of Reference Examples l to 4 were employed.

[2] = test system: Ps.maltophilia GN 12873; type: cell-based, Pseudomonas maltophilia; settings: Stenotrophomonas maltophilia, GN12873; Ps.maltophilia GN 12873 (β-Lactamase-producing strain); Mueller Hinton agar, inoculum 10⁶ CFU/ml, 37°C, 16 hours; read-out: Minimum Inhibitory Concentration (MIC: µg/ml)
Method: as §1

[3] = test system: S.marcescens IAM 1184; type: cell-based; settings: Serratia marcescens, IAM1184; S.marcescens IAM 1184; Mueller Hinton agar, inoculum 10⁶ CFU/ml, 37°C, 16 hours; read-out: Minimum Inhibitory Concentration (MIC: µg/ml)
Method: as §1

[4] = test system: K.oxytoca GN10650; type: cell-based; settings: Klebsiella oxytoca; K.oxytoca GN10650 (β-Lactamase-producing strain); Mueller Hinton agar, inoculum 10⁶ CFU/ml, 37°C, 16 hours; read-out: Minimum Inhibitory Concentration (MIC: µg/ml)
Method: as §1

[5] = test system: E.coli NIHJ JC2; type: cell-based; settings: Escherichia coli, NIHJJC2; E.coli NIHJ JC2; Mueller Hinton agar, inoculum 10⁶ CFU/ml, 37°C, 16 hours; read-out: Minimum Inhibitory Concentration (MIC: µg/ml)
Method: as §1

[6] = test system: E.coli CSH2 (RK1); type: cell-based; settings: Escherichia coli, 16 h, read-out: Minimum Inhibitory Concentration (MIC: µg/ml)
Method: as §1

[7] = test system: Ps.aeruginosa AKR17; type: cell-based; settings: Pseudomonas aeruginosa; Ps.aeruginosa AKR17; Mueller Hinton agar, inoculum 10⁶ CFU/ml, 37°C, 16 hours; read-out: Minimum Inhibitory Concentration (MIC: µg/ml)
Method: as §1

[8] = test system: S.marcescens No. 16-2; type: cell-based; settings: Serratia marcescens, NO.162; S.marcescens No. 16-2 (β-Lactamase-producing strain); Mueller Hinton agar, inoculum 10⁶ CFU/ml, 37°C, 16 hours; read-out: Minimum Inhibitory Concentration (MIC: µg/ml)
Method: as §1

[9] = test system: C.freundii GN346/16; type: cell-based; settings: Citrobacter freundii; C.freundii GN346/16; Mueller Hinton agar, inoculum 10⁶ CFU/ml, 37°C, 16 hours; read-out: Minimum Inhibitory Concentration (MIC: µg/ml)
Method: as §1

[10] = test system: E.cloacae Nek 39; type: cell-based; settings: Enterobacter cloacae, NEK39; E.cloacae Nek 39 (β-Lactamase-producing strain); Mueller Hinton agar, inoculum 10⁶ CFU/ml, 37°C, 16 hours; read-out: Minimum Inhibitory Concentration (MIC: µg/ml)
Method: as §1

[11] = test system: K.pneumoniae No. 42; type: cell-based; settings: Klebsiella pneumoniae; K.pneumoniae No. 42 (β-Lactamase-producing strain); Mueller Hinton agar, inoculum 10⁶ CFU/ml, 37°C, 16 hours; read-out: Minimum Inhibitory Concentration (MIC: µg/ml)
Method: as §1

[12] = test system: Ps.aeruginosa IFO3445; type: cell-based; settings: Pseudomonas aeruginosa; Ps.aeruginosa IFO3445; Mueller Hinton agar, inoculum 10⁶ CFU/ml, 37°C, 16 hours; read-out: Minimum Inhibitory Concentration (MIC: µg/ml)
Method: as §1

[13] = test system: E.coli CSH(RE45); type: cell-based; settings: Escherichia coli, 16 h, read-out: Minimum Inhibitory Concentration (MIC: µg/ml)
Method: as §1

[14] = test system: K.pneumoniae PCI-602; type: cell-based; settings: Klebsiella pneumoniae, PCI602; K.pneumoniae PCI-602; Mueller Hinton agar, inoculum 10⁶ CFU/ml, 37°C, 16 hours; read-out: Minimum Inhibitory Concentration (MIC: µg/ml)
Method: as §1

[15] = test system: C.freundii GN346; type: cell-based; settings: Citrobacter freundii; C.freundii GN346 (β-Lactamase-producing strain); Mueller Hinton agar, inoculum 10⁶ CFU/ml, 37°C, 16 hours; read-out: Minimum Inhibitory Concentration (MIC: µg/ml)
Method: as §1

[16] = test system: S.aureus 209P NIHJ-JC1; type: cell-based; settings: Staphylococcus aureus; S.aureus 209P NIHJ-JC1; Mueller Hinton agar, inoculum 10⁶ CFU/ml, 37°C, 16 hours; read-out: Minimum Inhibitory Concentration (MIC: µg/ml)
Method: as §1

[17] = test system: S.aureus JS1; type: cell-based; settings: Staphylococcus aureus; S.aureus JS1 (β-Lactamase-producing strain); Mueller Hinton agar, inoculum 10⁶ CFU/ml, 37°C, 16 hours; read-out: Minimum Inhibitory Concentration (MIC: µg/ml)
Method: as §1

[18] = test system: P.vulgaris No. 33; type: cell-based; settings: Proteus vulgaris; P.vulgaris No. 33 (β-Lactamase-producing strain); Mueller Hinton agar, inoculum 10⁶ CFU/ml, 37°C, 16 hours; read-out: Minimum Inhibitory Concentration (MIC: µg/ml)
Method: as §1

[19] = test system: E.coli GN5482; type: cell-based; settings: Escherichia coli; E.coli GN5482 (β-Lactamase-producing strain); Mueller Hinton agar, inoculum 10⁶ CFU/ml, 37°C, 16 hours; read-out: Minimum Inhibitory Concentration (MIC: µg/ml)
Method: as §1

[20] = test system: P.vulgaris HX-19; type: cell-based; settings: Proteus vulgaris, HX19; P.vulgaris HX-19; Mueller Hinton agar, inoculum 10⁶ CFU/ml, 37°C, 16 hours; read-out: Minimum Inhibitory Concentration (MIC: µg/ml)
Method: as §1

[21] = test system: Ps.aeruginosa AK 109; type: cell-based; settings: Pseudomonas aeruginosa, AK109; Ps.aeruginosa AK 109; Mueller Hinton agar, inoculum 10⁶ CFU/ml, 37°C, 16 hours; read-out: Minimum Inhibitory Concentration (MIC: µg/ml)
Method: as §1

[22] = test system: E.cloacae 963; type: cell-based; settings: Enterobacter cloacae; E.cloacae 963; Mueller Hinton agar, inoculum 10⁶ CFU/ml, 37°C, 16 hours; read-out: Minimum Inhibitory Concentration (MIC: µg/ml)
Method: as §1

[23] = test system: M.morganii GN5407; type: cell-based; settings: Morganella morganii; M.morganii GN5407 (β-Lactamase-producing strain); Mueller Hinton agar, inoculum 10⁶ CFU/ml, 37°C, 16 hours; read-out: Minimum Inhibitory Concentration (MIC: µg/ml)
Method: as §1

[24] = test system: S.aureus BB5703; type: cell-based; settings: Staphylococcus aureus; S.aureus BB5703; Mueller Hinton agar, inoculum 10⁶ CFU/ml, 37°C, 16 hours; read-out: Minimum Inhibitory Concentration (MIC: µg/ml)
Method: as §1

[25] = test system: A.calcoaceticus No. 4; type: cell-based; settings: Acinetobacter calcoaceticus; A.calcoaceticus No. 4; Mueller Hinton agar, inoculum 10⁶ CFU/ml, 37°C, 16 hours; read-out: Minimum Inhibitory Concentration (MIC: µg/ml)
Method: as §1

## CC(C)(ON=C(C(=O)NC1C(=O)N2C(C(=O)[O-])=C(C[n+]3ccc4c(O)cccc4c3)CSC12)c1csc(N)n1)C(=O)O (stereo not drawn) [Reference Ex. 4, sodium 7-[2-(2-aminothiazol-4-yl)-2-(l-carboxylato-l-methylethoxyimino)acetamido]-3-(5-hydroxy-2-isoquinolinio)methyl-3-cephem-4-carboxylate, reference compound]
[1]
  MIC: 1.56 µg/mL
[2]
  MIC: 50 µg/mL
[3]
  MIC: 0.2 µg/mL
[4]
  MIC: 0.39 µg/mL
[5]
  MIC: 0.78 µg/mL
[6]
  MIC: 0.39 µg/mL
[7]
  MIC: > 100 µg/mL
[8]
  MIC: 6.25 µg/mL
[9]
  MIC: 1.56 µg/mL
[10]
  MIC: 12.5 µg/mL
[11]
  MIC: 0.78 µg/mL
[12]
  MIC: 6.25 µg/mL
[13]
  MIC: 0.39 µg/mL
[14]
  MIC: 0.2 µg/mL
[15]
  MIC: > 100 µg/mL
[16]
  MIC: 12.5 µg/mL
[17]
  MIC: 100 µg/mL
[18]
  MIC: 0.1 µg/mL
[19]
  MIC: 6.25 µg/mL
[20]
  MIC: 0.0125 µg/mL
[21]
  MIC: 6.25 µg/mL
[22]
  MIC: 0.78 µg/mL
[23]
  MIC: 0.1 µg/mL
[24]
  MIC: 100 µg/mL
[25]
  MIC: 25 µg/mL

## CON=C(C(=O)NC1C(=O)N2C(C(=O)[O-])=C(C[n+]3ccc4cccc(O)c4c3)CS[C@H]12)c1csc(N)n1 (stereo partly drawn) [Reference Ex. 3, 7-[2-(2-aminothiazol-4-yl)-2-methoxyiminoacetamido]-3-(8-hydroxy-2-isoquinolinio)methyl-3-cephem-4-carboxylate, reference compound]
[1]
  MIC: 6.25 µg/mL (≈ 11.6 µM)
[2]
  MIC: > 100 µg/mL
[3]
  MIC: 0.025 µg/mL (≈ 0.0462 µM)
[4]
  MIC: 3.12 µg/mL (≈ 5.77 µM)
[5]
  MIC: 0.05 µg/mL (≈ 0.0925 µM)
[6]
  MIC: 0.025 µg/mL (≈ 0.0462 µM)
[7]
  MIC: > 100 µg/mL
[8]
  MIC: 3.12 µg/mL (≈ 5.77 µM)
[9]
  MIC: 0.1 µg/mL (≈ 0.185 µM)
[10]
  MIC: 0.78 µg/mL (≈ 1.44 µM)
[11]
  MIC: 0.1 µg/mL (≈ 0.185 µM)
[12]
  MIC: 12.5 µg/mL (≈ 23.1 µM)
[13]
  MIC: 0.39 µg/mL (≈ 0.721 µM)
[14]
  MIC: < 0.006 µg/mL
[15]
  MIC: 12.5 µg/mL (≈ 23.1 µM)
[16]
  MIC: 0.78 µg/mL (≈ 1.44 µM)
[17]
  MIC: 25 µg/mL (≈ 46.2 µM)
[18]
  MIC: 0.05 µg/mL (≈ 0.0925 µM)
[19]
  MIC: 0.39 µg/mL (≈ 0.721 µM)
[20]
  MIC: 0.0125 µg/mL (≈ 0.0231 µM)
[21]
  MIC: 50 µg/mL (≈ 92.5 µM)
[22]
  MIC: 0.05 µg/mL (≈ 0.0925 µM)
[23]
  MIC: 0.025 µg/mL (≈ 0.0462 µM)
[24]
  MIC: 3.12 µg/mL (≈ 5.77 µM)
[25]
  MIC: 25 µg/mL (≈ 46.2 µM)

## CON=C(C(=O)NC1C(=O)N2C(C(=O)[O-])=C(C[n+]3ccc4c(O)cccc4c3)CS[C@H]12)c1csc(N)n1 (stereo partly drawn) [Reference Ex. 2, 7-[2-(2-aminothiazol-4-yl)-2-methoxyiminoacetamido]-3-(5-hydroxy-2-isoquinolinio)methyl-3-cephem-4-carboxylate, reference compound]
[1]
  MIC: 6.25 µg/mL (≈ 11.6 µM)
[2]
  MIC: > 100 µg/mL
[3]
  MIC: 0.025 µg/mL (≈ 0.0462 µM)
[4]
  MIC: 12.5 µg/mL (≈ 23.1 µM)
[5]
  MIC: 0.025 µg/mL (≈ 0.0462 µM)
[6]
  MIC: 0.025 µg/mL (≈ 0.0462 µM)
[7]
  MIC: > 100 µg/mL
[8]
  MIC: 3.12 µg/mL (≈ 5.77 µM)
[9]
  MIC: 0.1 µg/mL (≈ 0.185 µM)
[10]
  MIC: 0.78 µg/mL (≈ 1.44 µM)
[11]
  MIC: 0.1 µg/mL (≈ 0.185 µM)
[12]
  MIC: 3.12 µg/mL (≈ 5.77 µM)
[13]
  MIC: 1.56 µg/mL (≈ 2.89 µM)
[14]
  MIC: < 0.006 µg/mL
[15]
  MIC: 6.25 µg/mL (≈ 11.6 µM)
[16]
  MIC: 0.39 µg/mL (≈ 0.721 µM)
[17]
  MIC: 6.25 µg/mL (≈ 11.6 µM)
[18]
  MIC: 0.1 µg/mL (≈ 0.185 µM)
[19]
  MIC: 0.2 µg/mL (≈ 0.37 µM)
[20]
  MIC: < 0.006 µg/mL
[21]
  MIC: 3.12 µg/mL (≈ 5.77 µM)
[22]
  MIC: 0.025 µg/mL (≈ 0.0462 µM)
[23]
  MIC: 0.025 µg/mL (≈ 0.0462 µM)
[24]
  MIC: 3.12 µg/mL (≈ 5.77 µM)
[25]
  MIC: 12.5 µg/mL (≈ 23.1 µM)
